Assay results from patent US11168073B2, “3,3-difluoroallylamines or salts thereof and pharmaceutical compositions comprising the same” (YUHAN CORPORATION, priority 2018, dated 2021).
Counter-ions that a name gives are not always drawn.

Key:
Format in all cases: biochemical
[1] = target: T1, recombinant human MAO-B (monoamine oxidase-B) (Homo sapiens, UniProt P27338); experiment: Activity evaluation on recombinant human MAO-B (Amplex Red/HRP-coupled assay, 1 mM benzylamine substrate); details: 1 mM benzylamine, read-out: Inhibitory Activity (IC50, nM) MAO-B
T1 construct: purchased Sigma-Aldrich
T1 sequence (P27338 1-520): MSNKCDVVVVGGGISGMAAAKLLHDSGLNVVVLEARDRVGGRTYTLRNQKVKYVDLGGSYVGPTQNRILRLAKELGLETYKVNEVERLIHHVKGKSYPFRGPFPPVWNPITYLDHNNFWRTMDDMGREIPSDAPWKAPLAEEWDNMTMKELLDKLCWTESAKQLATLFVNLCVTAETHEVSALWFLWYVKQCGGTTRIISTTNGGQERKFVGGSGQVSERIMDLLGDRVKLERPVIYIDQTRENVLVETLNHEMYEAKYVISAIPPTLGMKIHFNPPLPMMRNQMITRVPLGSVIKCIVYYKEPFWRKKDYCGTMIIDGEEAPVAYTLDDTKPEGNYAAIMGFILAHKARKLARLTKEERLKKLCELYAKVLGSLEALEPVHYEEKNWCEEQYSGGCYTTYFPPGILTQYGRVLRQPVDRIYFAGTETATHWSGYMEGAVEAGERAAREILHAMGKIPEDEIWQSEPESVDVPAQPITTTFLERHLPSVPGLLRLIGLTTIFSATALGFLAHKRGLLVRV
In short: (§1)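 Using an HRP-coupled Amplex Red readout (544/590 nm, kinetic over 1–2 h), IC50 values were fitted by 4-parameter logistic model to percent decrease in signal rate against DMSO control. Compounds (1:3 dilutions, 8 points, <1% DMSO) sat 30 min at 37 °C with enzyme in pH 7.4 phosphate buffer before substrate, 200 uM Amplex Red and HRP were added.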

[2] = target: T2, recombinant human MAO-A (monoamine oxidase-A) (Homo sapiens, UniProt P21397); experiment: Activity evaluation on recombinant human MAO-A (Amplex Red/HRP-coupled assay, 0.5 mM tyramine substrate); details: 0.5 mM tyramine, read-out: Inhibitory Activity (IC50, nM) MAO-A
T2 construct: purchased Sigma-Aldrich
T2 sequence (P21397 1-527): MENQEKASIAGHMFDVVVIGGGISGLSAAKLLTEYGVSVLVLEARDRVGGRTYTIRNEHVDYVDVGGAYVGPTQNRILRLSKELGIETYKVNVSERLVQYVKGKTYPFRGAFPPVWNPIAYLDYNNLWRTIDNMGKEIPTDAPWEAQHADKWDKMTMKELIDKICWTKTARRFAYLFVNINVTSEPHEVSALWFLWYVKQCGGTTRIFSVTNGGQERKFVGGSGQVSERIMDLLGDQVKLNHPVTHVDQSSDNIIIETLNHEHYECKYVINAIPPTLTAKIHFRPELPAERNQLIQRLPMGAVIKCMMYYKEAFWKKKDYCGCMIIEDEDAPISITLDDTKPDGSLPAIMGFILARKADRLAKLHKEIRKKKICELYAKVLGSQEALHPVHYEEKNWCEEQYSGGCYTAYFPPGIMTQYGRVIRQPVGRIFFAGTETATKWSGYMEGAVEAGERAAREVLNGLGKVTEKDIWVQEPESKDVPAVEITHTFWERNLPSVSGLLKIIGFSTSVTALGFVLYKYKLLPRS
In short: as §1

recombinant human VAP-1 = target: T3, recombinant human VAP-1 (Homo sapiens, UniProt Q16853); experiment: Activity evaluation on recombinant human VAP-1 (Amplex Red/HRP-coupled hydrogen peroxide assay, benzylamine substrate); details: recombinant human VAP-1; 30 min preincubation at 37° C.; 1 mM benzylamine; read-out: Inhibitory Activity (IC50, nM) human VAP-1
T3 construct: purchased R&D systems
T3 sequence (Q16853 1-763): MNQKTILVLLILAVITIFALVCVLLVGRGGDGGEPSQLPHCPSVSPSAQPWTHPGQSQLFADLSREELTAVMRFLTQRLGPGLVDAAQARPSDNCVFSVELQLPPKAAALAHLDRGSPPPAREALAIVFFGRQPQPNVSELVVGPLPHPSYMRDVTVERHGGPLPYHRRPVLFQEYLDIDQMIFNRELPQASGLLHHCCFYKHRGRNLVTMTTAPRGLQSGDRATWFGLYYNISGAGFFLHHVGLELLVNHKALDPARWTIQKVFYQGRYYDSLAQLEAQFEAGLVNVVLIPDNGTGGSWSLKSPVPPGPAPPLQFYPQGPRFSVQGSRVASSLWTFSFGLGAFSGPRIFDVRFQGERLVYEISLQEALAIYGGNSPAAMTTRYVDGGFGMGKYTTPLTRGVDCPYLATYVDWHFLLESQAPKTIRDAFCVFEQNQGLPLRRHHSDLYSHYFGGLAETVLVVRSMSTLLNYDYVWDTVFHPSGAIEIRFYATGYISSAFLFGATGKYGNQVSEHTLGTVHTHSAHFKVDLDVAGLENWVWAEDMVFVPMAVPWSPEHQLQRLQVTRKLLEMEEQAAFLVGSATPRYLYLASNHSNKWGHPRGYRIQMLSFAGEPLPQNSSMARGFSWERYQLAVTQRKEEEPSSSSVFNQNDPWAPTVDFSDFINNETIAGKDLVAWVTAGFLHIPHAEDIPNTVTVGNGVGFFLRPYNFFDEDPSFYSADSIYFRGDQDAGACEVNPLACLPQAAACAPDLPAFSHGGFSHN
In short: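 Hydrogen peroxide from benzylamine (1 mM) oxidation by human recombinant VAP-1 detected via HRP-coupled Amplex Red (200 uM) fluorescence, kinetic over 1–2 h. Enzyme and compound preincubated 30 min at 37 °C, pH 7.4 phosphate; 8-point dose response, signal-rate decrease versus DMSO control fitted to four-parameter logistic for IC50.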

[3] = target: T4, recombinant human DAO (diamine oxidase) (Homo sapiens, UniProt P19801); experiment: Activity evaluation on recombinant human DAO (Amplex Red/HRP-coupled assay, 1 mM putrescine substrate); details: 1 mM putrescine, read-out: Inhibitory Activity (IC50, nM) DAO
T4 construct: purchased R&D systems
T4 sequence (P19801 20-751): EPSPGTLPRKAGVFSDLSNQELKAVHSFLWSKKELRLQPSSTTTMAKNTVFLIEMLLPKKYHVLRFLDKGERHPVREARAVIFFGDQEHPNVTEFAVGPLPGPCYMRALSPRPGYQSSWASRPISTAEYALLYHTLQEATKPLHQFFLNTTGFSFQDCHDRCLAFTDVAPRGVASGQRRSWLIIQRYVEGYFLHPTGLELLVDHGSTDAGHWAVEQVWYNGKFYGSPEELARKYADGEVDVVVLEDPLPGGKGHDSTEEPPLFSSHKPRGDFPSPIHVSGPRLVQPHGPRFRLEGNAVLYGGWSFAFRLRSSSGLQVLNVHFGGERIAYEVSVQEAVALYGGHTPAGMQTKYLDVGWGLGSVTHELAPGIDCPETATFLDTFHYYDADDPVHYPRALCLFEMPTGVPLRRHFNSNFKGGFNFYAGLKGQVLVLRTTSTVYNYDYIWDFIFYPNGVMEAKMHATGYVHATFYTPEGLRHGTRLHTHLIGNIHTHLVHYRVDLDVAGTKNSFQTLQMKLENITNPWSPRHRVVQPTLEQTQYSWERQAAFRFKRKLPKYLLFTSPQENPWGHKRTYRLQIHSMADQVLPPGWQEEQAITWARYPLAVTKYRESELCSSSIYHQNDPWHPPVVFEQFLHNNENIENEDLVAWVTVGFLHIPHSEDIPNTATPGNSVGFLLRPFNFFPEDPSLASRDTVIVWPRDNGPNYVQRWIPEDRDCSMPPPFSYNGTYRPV
In short: as §1

| SMILES | IC50 [1] | IC50 [2] | IC50 (recombinant human VAP-1) | IC50 [3] |
| --- | --- | --- | --- | --- |
| NCC(Cn1ncn(Cc2ccc(-c3ccc4c(c3)NC(=O)OC4)s2)c1=O)=C(F)F [Example 142, 7-[5-[[1-[2-(aminomethyl)-3,3-difluoro-allyl]-5-oxo-1,2,4-triazol-4-yl]methyl]-2-thienyl]-1,4-dihydro-3,1-benzoxazin-2-one Trifluoroacetate] | 32000 nM | > 100000 nM | 0.2 nM | 16000 nM |
| NCC(Cn1ncn(Cc2ccc(-c3ccc4c(c3)COC(=O)N4)s2)c1=O)=C(F)F [Example 143, 6-[5-[[1-[2-(aminomethyl)-3,3-difluoro-allyl]-5-oxo-1,2,4-triazol-4-yl]methyl]-2-thienyl]-1,4-dihydro-3,1-benzoxazin-2-one Trifluoroacetate] | 6400 nM | > 100000 nM | 0.2 nM | > 10000 nM |
| CN1C(=O)COc2cc(-c3ccc(Cn4cnn(CC(CN)=C(F)F)c4=O)s3)ccc21 [Example 144, 7-[5-[[1-[2-(aminomethyl)-3,3-difluoro-allyl]-5-oxo-1,2,4-triazol-4-yl]methyl]-2-thienyl]-4-methyl-1,4-benzoxazin-3-one Trifluoroacetate] | > 100000 nM | > 100000 nM | 0.7 nM | > 10000 nM |
| NCC(Cn1ncn(Cc2ccc(-c3cnc4c(c3)CCCN4)s2)c1=O)=C(F)F [Example 145, 2-[2-(aminomethyl)-3,3-difluoro-allyl]-4-[[5-(5,6,7,8-tetrahydro-1,8-naphthyridin-3-yl)-2-thienyl]methyl]-1,2,4-triazol-3-one Ditrifluoroacetate] | > 100000 nM | > 100000 nM | 0.8 nM | > 100000 nM |
| CS(=O)(=O)c1ccc(-c2csc(Cn3cnn(CC(CN)=C(F)F)c3=O)c2)cc1 [Example 146, 2-[2-(aminomethyl)-3,3-difluoro-allyl]-4-[[4-(4-methylsulfonylphenyl)-2-thienyl]methyl]-1,2,4-triazol-3-one Trifluoroacetate] | 33000 nM | > 100000 nM | 1.1 nM | 9200 nM |
| NCC(Cn1ncn(Cc2cc(-c3ccc(N4CCNCC4)cc3)cs2)c1=O)=C(F)F [Example 147, 2-[2-(aminomethyl)-3,3-difluoro-allyl]-4-[[4-(4-piperazin-1-ylphenyl)-2-thienyl]methyl]-1,2,4-triazol-3-one Ditrifluoroacetate] | > 100000 nM | > 100000 nM | 11 nM | 2600 nM |
| NCC(Cn1ncn(Cc2cc(-c3ccc(C(F)(F)F)nc3)cs2)c1=O)=C(F)F [Example 148, 2-[2-(aminomethyl)-3,3-difluoro-allyl]-4-[[4-[6-(trifluoromethyl)-3-pyridyl]-2-thienyl]methyl]-1,2,4-triazol-3-one Trifluoroacetate] | 8700 nM | > 100000 nM | 0.7 nM | 6300 nM |

Next, values leading:

| IC50 [1] | IC50 [2] | IC50 (recombinant human VAP-1) | IC50 [3] | SMILES |
| --- | --- | --- | --- | --- |
| > 100000 nM | > 100000 nM | 0.6 nM | > 10000 nM | CN(C)c1ccc(-c2csc(Cn3cnn(CC(CN)=C(F)F)c3=O)c2)cn1 [Example 149, 2-[2-(aminomethyl)-3,3-difluoro-allyl]-4-[[4-[6-(dimethylamino)-3-pyridyl]-2-thienyl]methyl]-1,2,4-triazol-3-one Trifluoroacetate] |
| 2800 nM | > 100000 nM | 2.9 nM | > 10000 nM | NCC(Cn1ncn(Cc2cc(-c3ccc4c(c3)OCO4)cs2)c1=O)=C(F)F [Example 150, 2-[2-(aminomethyl)-3,3-difluoro-allyl]-4-[[4-(1,3-benzodioxol-5-yl)-2-thienyl]methyl]-1,2,4-triazol-3-one Trifluoroacetate] |
| 26100 nM | > 100000 nM | 0.3 nM | 6600 nM | Cc1cc(-c2csc(Cn3cnn(CC(CN)=C(F)F)c3=O)c2)cc2c1NC(=O)CC2 [Example 151, 6-[5-[[1-[2-(aminomethyl)-3,3-difluoro-allyl]-5-oxo-1,2,4-triazol-4-yl]methyl]-3-thienyl]-8-methyl-3,4-dihydro-1H-quinolin-2-one Trifluoroacetate] |
| 13400 nM | > 100000 nM | 0.2 nM | 3500 nM | CN1C(=O)CCc2cc(-c3csc(Cn4cnn(CC(CN)=C(F)F)c4=O)c3)ccc21 [Example 152, 6-[5-[[1-[2-(aminomethyl)-3,3-difluoro-allyl]-5-oxo-1,2,4-triazol-4-yl]methyl]-3-thienyl]-1-methyl-3,4-dihydroquinolin-2-one Trifluoroacetate] |
| 29000 nM | > 100000 nM | 1.3 nM | 36000 nM | CCn1cc(-c2csc(Cn3cnn(CC(CN)=C(F)F)c3=O)c2)cn1 [Example 153, 2-[2-(aminomethyl)-3,3-difluoro-allyl]-4-[[4-(1-ethylpyrazol-4-yl)-2-thienyl]methyl]-1,2,4-triazol-3-one Trifluoroacetate] |
| > 100000 nM | > 100000 nM | 4 nM | 21000 nM | Cc1cc(-c2ccc(S(C)(=O)=O)cc2)sc1Cn1cnn(CC(CN)=C(F)F)c1=O [Example 154, 2-[2-(aminomethyl)-3,3-difluoro-allyl]-4-[[3-methyl-5-(4-methylsulfonylphenyl)-2-thienyl]methyl]-1,2,4-triazol-3-one Trifluoroacetate] |
